Several values for one entry are separate records, joined by “and”; a condition that tells them apart may be missing. Equal values may be shown once.
Legend:
HMGCR (TM1-8)-GFP [1] = biological target: T1, HMGCR (TM1-8)-GFP (Cricetulus griseus, UniProt P00347); test: Immunoblotting of overexpressed HMGCR (TM1-8)-GFP in CHG cells; assay type: cell-based, hamster; parameters: corresponding to the amino acids from 1 to 346 of hamster HMGCR; expressed in transfected cells; settings: 16 h, DMSO = 100
T1 sequence (P00347 1-346): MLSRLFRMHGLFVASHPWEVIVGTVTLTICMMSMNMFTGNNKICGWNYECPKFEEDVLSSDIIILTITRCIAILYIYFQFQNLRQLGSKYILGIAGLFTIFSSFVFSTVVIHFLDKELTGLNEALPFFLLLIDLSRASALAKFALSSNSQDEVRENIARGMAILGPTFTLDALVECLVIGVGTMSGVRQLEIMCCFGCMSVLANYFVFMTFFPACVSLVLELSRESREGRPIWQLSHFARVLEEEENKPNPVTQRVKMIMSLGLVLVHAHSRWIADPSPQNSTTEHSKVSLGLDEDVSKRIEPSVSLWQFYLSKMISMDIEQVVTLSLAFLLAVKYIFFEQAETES
Protocol: Fig. 2 A reporting system that measures HMGCR degradation. a Schematic of the HMGCR (TM1-8)-GFP fusion protein. […] Data are from three independent experiments and presented as mean ± SD. Source data are provided as a Source Data File.
(§1) Cells were harvested and homogenized in the RIPA buffer (50 mM Tris-HCl, pH 8.0, 150 mM NaCl, 2 mM MgCl2, 1.5% NP-40, 0.1% SDS, and 0.5% sodium deoxycholate) supplemented with protease cocktail inhibitor, 10 μM MG-132, 10 μg ml^−1 leupeptin and 1 mM phenylmethylsulfonyl fluoride. The protein concentrations of lysates were determined using BCA method (Beyotime). Samples were mixed with the membrane protein solubilization buffer (62.5 mM Tris-HCl, pH 6.8, 15% SDS, 8 M urea, 10% glycerol, and 100 mM DTT) plus the 4× loading buffer (150 mM Tris-HCl, pH 6.8, 12% SDS, 30% glycerol, 6% 2-mercaptoethanol, and 0.02% bromophenol blue) and incubated for 30 min at 37 °C. Proteins were resolved by SDS-PAGE and transferred to nitrocellulose membranes (GE Healthcare). Immnoblots were blocked with 5% non-fat milk in TBS containing 0.075% Tween-20 (TBST) and probed with indicated antibodies overnight at 4 °C. After washing in TBST for five times, blots were incubated with HRP-conjugated secondary antibodies for 2 h at room temperature. Immunoreactivity was developed with Clarity Western ECL chemiluminescent substrates (170–5061, Bio-Rad). Western blot images were captured by Amersham Imager 600 (GE Healthcare), and integrated optical intensities of each band were quantified by Image-Pro Plus 6 software (Media Cybernetics). Uncropped blots are shown in Supplementary Figs. 9–13.

HMGCR (TM1-8)-GFP [2] = biological target: T1, HMGCR (TM1-8)-GFP; test: HMGCR (TM1-8)-GFP fluorescent assay (high-content imaging) in CHG cells; settings: 16 h, read-out: HMGCR (TM1-8)-GFP fluorescent intensity, mean
Protocol: (§2) We thus generated a cell line stably expressing the transmembrane domain of HMGCR fused with green fluorescent protein (GFP) as a reporter (HMGCR (TM1-8)-GFP) (Fig. 2a).
(§3) CHO-7 cells were transfected with pCMV-HMGCR (TM1-8)-GFP using FuGENE HD. Twenty-four hours, cells were switched to medium B supplemented with 5% FBS and selected in the presence of 1 mg ml^−1 G418 for 2 weeks. Surviving colonies were isolated and confirmed for GFP expression by immunoblotting and immunofluorescence. The resulting CHO-7/HMGCR (TM1-8)-GFP stable cell line (CHG) was maintained in medium B supplemented with 5% FBS and 200 μg ml^−1 G418.
(§4) CHG cells were treated as described in figure legends. Briefly, cells were seeded at day 0 in 96-well black plate (3904, Corning) at a density of 1.5 × 10^4 cells per well, in medium B containing with 5% LPDS. Day 1, corresponding compounds were added as figure legends described in medium B with 5% LPDS, 1 μM lovastatin, 50 μM sodium mevalonate for 16 h. Then cells were fixed with 4% paraformaldehyde for 20 min, washed with PBS for three times, and stained with 2 μg ml^−1 Hoechst 33342.
(§5) The fluorescent images (GFP and Hoechst channel) were captured using an Operatta High-Content Imaging System (PerkinElmer) with a ×20 objective. The cytoplasmic GFP fluorescence was measured with the Harmony Software (PerkinElmer). Five random selected filed per well were captured, and about 3000 cells were used to determine the mean cytoplasmic GFP fluorescent intensity per cell after subtracting background GFP intensity. The average GFP intensity of DMSO-treated cells was defined as 100.

HMGCR = biological target: T2, HMGCR (Cricetulus griseus, UniProt P00347); test: Immunoblotting of endogenous HMGCR protein in CHO-7 (or CHG) cells; assay type: cell-based, Chinese hamster; settings: for endogenous HMGCR protein level (immunoblot), mean: CHG cells, 16 h, DMSO = 100; for increase of HMGCR protein (maximum increment): CHO-7 cells, statin 16 h, DMSO = 1
T2 construct: endogenous in cells; host or cells: CHO-7, CHG, SRD-13A, SRD-15
T2 sequence (P00347 1-887): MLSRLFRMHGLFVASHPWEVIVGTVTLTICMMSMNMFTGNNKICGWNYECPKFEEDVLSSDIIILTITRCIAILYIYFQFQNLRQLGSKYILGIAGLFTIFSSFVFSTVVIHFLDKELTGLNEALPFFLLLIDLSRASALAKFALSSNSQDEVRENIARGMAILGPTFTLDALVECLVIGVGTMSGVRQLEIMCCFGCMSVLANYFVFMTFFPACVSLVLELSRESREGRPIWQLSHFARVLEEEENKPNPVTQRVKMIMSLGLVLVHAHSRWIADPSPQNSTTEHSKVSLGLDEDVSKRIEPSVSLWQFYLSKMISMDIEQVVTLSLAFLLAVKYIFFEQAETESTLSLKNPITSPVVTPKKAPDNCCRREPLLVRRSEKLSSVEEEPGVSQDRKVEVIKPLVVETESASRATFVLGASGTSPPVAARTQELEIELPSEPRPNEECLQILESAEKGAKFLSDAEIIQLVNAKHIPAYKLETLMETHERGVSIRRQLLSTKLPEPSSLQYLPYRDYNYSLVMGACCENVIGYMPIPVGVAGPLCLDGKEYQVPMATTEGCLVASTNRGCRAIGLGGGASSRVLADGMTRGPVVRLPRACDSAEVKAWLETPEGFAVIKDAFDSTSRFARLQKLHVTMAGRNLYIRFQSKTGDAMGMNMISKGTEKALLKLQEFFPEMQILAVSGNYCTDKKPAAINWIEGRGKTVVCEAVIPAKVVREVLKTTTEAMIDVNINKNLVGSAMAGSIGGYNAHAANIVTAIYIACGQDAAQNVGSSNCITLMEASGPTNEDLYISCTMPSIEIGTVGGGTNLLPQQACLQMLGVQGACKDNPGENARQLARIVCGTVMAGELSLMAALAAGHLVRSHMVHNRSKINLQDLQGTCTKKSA
Protocol: CHO-7 (Chinese hamster ovary cell, a clone of CHO-K1 cell line selected for growth in LPDS) and Huh7 (a human hepatocellular carcinoma cell line), SRD-13A (a Scap-deficient CHO-7 cell line) and SRD-15 (an Insig-1 and Insig-2-deficient CHO-7 cell line) were generous gifts from Russell Debose-Boyd at UT Southwestern Medical Center, USA. All cells were grown in a monolayer at 37 °C with 5% CO2. Huh7 cells were maintained in medium A supplemented with 10% FBS. CHO-7 and SRD-15 cells were maintained in medium B supplemented with 5% FBS. SRD-13A cells were maintained in medium B with 5% FBS, 5 μg ml^−1 cholesterol, 1 mM sodium mevalonate, 10 μM sodium oleate. No cell lines used in this study were found in the database of commonly misidentified cell lines that is maintained by ICLAC and NCBI Biosample. The cell lines have not been authenticated recently. No test for mycoplasma contamination was performed.
as §1

HMGCR (TM1-8)-GFP [3] = biological target: T1, HMGCR (TM1-8)-GFP
Protocol: as §2, §3, §4, §5

Hmgcr mRNA = test: RT-qPCR of Hmgcr mRNA in CHO-7 cells; assay type: cell-based, Chinese hamster; settings: CHO-7 cells, statin 16 h (lovastatin up to 10 μM), DMSO = 1
Protocol: Cells were treated as described in corresponding figure legends, then total RNA was extracted from cells or mouse livers using TRI Reagent (T9424, Sigma-Aldrich). Equal amounts of RNA from cells or mice receiving the same treatment were pooled were used for cDNA synthesis with oligo dT and reverse transcriptase MLV (Promega). Gene expression was analyzed by quantitative real-time PCR on a Stratagene Mx30005PTM Q-PCR Systems. The primers used were listed in Supplementary Tables 2–4.

LXR signaling pathway [4] = test: RT-qPCR of LXR target genes (SREBP-1c, ABCA1, ABCG8) in Huh-7 cells; assay type: cell-based, human; settings: 16 h
Protocol: Cells were treated as described in corresponding figure legends, then total RNA was extracted from cells or mouse livers using TRI Reagent (T9424, Sigma-Aldrich). Equal amounts of RNA from cells or mice receiving the same treatment were pooled were used for cDNA synthesis with oligo dT and reverse transcriptase MLV (Promega). Gene expression was analyzed by quantitative real-time PCR on a Stratagene Mx30005PTM Q-PCR Systems. The primers used were listed in Supplementary Tables 2–4. […]
pathway. a-c Huh-7 cells were treated with indicated compounds for 16 h and then harvested for total RNA isolation and RT-qPCR. Cells treated with LXR agonist T0901317 w ere used as positive controls. The relative mRNA levels of SREBP -1c (a), ABCA1 (b) and ABCG8 (c) were quantified . GAPDH was the reference gene. The relative mRNA level in DMSO-treated cells was defined as 1. Data are from 3 independent experiments and presented as mean ± SD.
(1 picture or pasted object on this page, not shown here)

LXR signaling pathway [5] = system: LXR signaling pathway; parameters: method as in earlier work; settings: previous studies ref 2 (Yang, C. et al. J. Biol. Chem. 281, 27816-27826 (2006)); cited from earlier work

CC(C)CCC[C@@H](C)[C@H]1CC[C@H]2[C@@H]3CC=C4C[C@@H](O)CC[C@]4(C)[C@H]3CC[C@]12C [Cholesterol]
overexpressed HMGCR (TM1-8)-GFP protein level (anti-GFP immunoblot), mean (HMGCR (TM1-8)-GFP [1]; 1 uM): 93.1421
overexpressed HMGCR (TM1-8)-GFP protein level (anti-GFP immunoblot), mean (HMGCR (TM1-8)-GFP [1]; 3 uM): 90.7374
overexpressed HMGCR (TM1-8)-GFP protein level (anti-GFP immunoblot), mean (HMGCR (TM1-8)-GFP [1]; 10 uM): 74.0079
remaining activity at 0.001 µM (HMGCR (TM1-8)-GFP [2]): 100%
remaining activity at 0.01 µM (HMGCR (TM1-8)-GFP [2]): 100%
remaining activity at 0.1 µM (HMGCR (TM1-8)-GFP [2]): 95.9%
remaining activity at 0.3 µM (HMGCR (TM1-8)-GFP [2]): 88.9%
remaining activity at 1 µM (HMGCR (TM1-8)-GFP [2]): 77.2%
remaining activity at 3 µM (HMGCR (TM1-8)-GFP [2]): 66.6%
remaining activity at 10 µM (HMGCR (TM1-8)-GFP [2]): 65.5%
remaining activity at 20 µM (HMGCR (TM1-8)-GFP [2]): 58.9%
remaining activity at 30 µM (HMGCR (TM1-8)-GFP [2]): 47%
endogenous HMGCR protein level (immunoblot), mean (HMGCR; 1 uM): 100.862
endogenous HMGCR protein level (immunoblot), mean (HMGCR; 3 uM): 95.8793
endogenous HMGCR protein level (immunoblot), mean (HMGCR; 10 uM): 57.8709
DC50 (HMGCR (TM1-8)-GFP [3]): ~30.4 µM and 30.4 µM

CC(C)c1c(C(=O)Nc2ccccc2)c(-c2ccccc2)c(-c2ccc(F)cc2)n1CC[C@@H](O)C[C@@H](O)CC(=O)O [atorvastatin]
increase of Hmgcr mRNA abundance (Hmgcr mRNA): 1.8 fold
increase of HMGCR protein (maximum increment) (HMGCR): ~9 fold

CC(C)n1c(/C=C/C(O)CC(O)CC(=O)O)c(-c2ccc(F)cc2)c2ccccc21 (stereo not shown) [fluvastatin]
increase of Hmgcr mRNA abundance (Hmgcr mRNA): 2.6 fold
increase of HMGCR protein (maximum increment) (HMGCR): ~11 fold

CC(C)=CCC[C@@H](C)[C@H]1CC[C@@]2(C)C3=C(CC[C@]12C)[C@@]1(C)CC[C@H](O)C(C)(C)[C@@H]1CC3 [lanosterol]
expression of LXR target genes (SREBP-1c, ABCA1 and ABCG8) mRNA (LXR signaling pathway [4]): did not activate the LXR target genes
activation of LXR (LXR signaling pathway [5]): no effect

CC[C@H](C)C(=O)O[C@H]1C[C@H](O)C=C2C=C[C@H](C)[C@H](CC[C@@H](O)C[C@@H](O)CC(=O)O)[C@H]21 [pravastatin]
increase of Hmgcr mRNA abundance (Hmgcr mRNA): 2.4 fold
increase of HMGCR protein (maximum increment) (HMGCR): ~12 fold

CC(C)c1nc(N(C)S(C)(=O)=O)nc(-c2ccc(F)cc2)c1/C=C/[C@@H](O)C[C@@H](O)CC(=O)O [rosuvastatin]
increase of Hmgcr mRNA abundance (Hmgcr mRNA): 2.3 fold
increase of HMGCR protein (maximum increment) (HMGCR): ~17 fold

CCC(C)(C)C(=O)O[C@H]1C[C@@H](C)C=C2C=C[C@H](C)[C@H](CC[C@@H]3C[C@@H](O)CC(=O)O3)[C@H]21 [simvastatin]
increase of Hmgcr mRNA abundance (Hmgcr mRNA): 3.5 fold
increase of HMGCR protein (maximum increment) (HMGCR): ~ 15 fold

Source: article PMC6277434, “Discovery of a potent HMG-CoA reductase degrader that eliminates statin-induced reductase accumulation and lowers cholesterol” (Nature Communications, 2018)
